Laboratory results taken from patent EP0694535A1, “Non-peptidyl tachykinin receptor antagonists” (ELI LILLY AND COMPANY, priority 1994, dated 1996).

Assays:
human NK-2 receptor = target: T1, human NK-2 receptor (Homo sapiens, UniProt P21452); experiment: NK-2 Receptor Binding Assay (CHO-hNK-2R membranes, iodohistidyl-neurokinin A); details: for inhibition at 10 µM: inhibition of neurokinin A binding at ten micromolar, read-out: Percent Inhibition @ 10 μM
T1 construct: expressed in transfected cells; host or cells: CHO-hNK-2R cells (CHO-derived), membrane preparation
T1 sequence (P21452 1-398): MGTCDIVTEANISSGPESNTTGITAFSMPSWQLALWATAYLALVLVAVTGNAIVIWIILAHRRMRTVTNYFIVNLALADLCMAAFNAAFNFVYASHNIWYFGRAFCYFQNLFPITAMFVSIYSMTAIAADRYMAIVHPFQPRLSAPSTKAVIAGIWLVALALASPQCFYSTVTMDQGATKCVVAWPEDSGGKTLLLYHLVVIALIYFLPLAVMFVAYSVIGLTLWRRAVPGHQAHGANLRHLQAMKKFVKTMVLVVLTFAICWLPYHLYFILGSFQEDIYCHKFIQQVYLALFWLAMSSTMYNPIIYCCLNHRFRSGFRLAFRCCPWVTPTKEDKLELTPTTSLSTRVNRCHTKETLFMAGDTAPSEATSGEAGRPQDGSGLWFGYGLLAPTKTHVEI
Procedure: The CHO-hNK-2R cells, a CHO-derived cell line transformed with the human NK-2 receptor, expressing about 400,000 such receptors per cell, were grown in 75 cm flasks or roller bottles in minimal essential medium (alpha modification) with 10% fetal bovine serum. The gene sequence of the human NK-2 receptor is given in N.P. Gerard, et al., Journal of Biological Chemistry, 265:20455-20462 (1990).
For preparation of membranes, 30 confluent roller bottle cultures were dissociated by washing each roller bottle with 10 ml of Dulbecco's phosphate buffered saline (PBS) without calcium and magnesium, followed by addition of 10 ml of enzyme-free cell dissociation solution (PBS-based, from Specialty Media, Inc.). After an additional 15 minutes, the dissociated cells were pooled and centrifuged at 1,000 RPM for 10 minutes in a clinical centrifuge. Membranes were prepared by homogenization of the cell pellets in 300 ml 50 mM Tris buffer, pH 7.4 with a Tekmar® homogenizer for 10-15 seconds, followed by centrifugation at 12,000 RPM (20,000 x g) for 30 minutes using a Beckman JA-14® rotor. The pellets were washed once using the above procedure. and the final pellets were resuspended in 100-120 ml 50 mM Tris buffer, pH 7.4, and 4 ml aliquots stored frozen at -70 °C. The protein concentration of this preparation was 2 mg/ml.
For the receptor binding assay, one 4-ml aliquot of the CHO-hNK-2R membrane preparation was suspended in 40 ml of assay buffer containing 50 mM Tris, pH 7.4, 3 mM manganese chloride, 0.02% bovine serum albumin (BSA) and 4 µg/ml chymostatin. A 200 µl volume of the homogenate (40 µg protein) was used per sample. The radioactive ligand was [[…]]iodohistidyl-neurokinin A (New England Nuclear, NEX-252), 2200 Ci/mmol. The ligand was prepared in assay buffer at 20 nCi per 100 µl; the final concentration in the assay was 20 pM. Non-specific binding was determined using 1 µM eledoisin. Ten concentrations of eledoisin from 0.1 to 1000 nM were used for a standard concentration-response curve.
All samples and standards were added to the incubation in 10 µl dimethylsulfoxide (DMSO) for screening (single dose) or in 5 µl DMSO for IC₅₀ determinations. The order of additions for incubation was 190 or 195 µl assay buffer, 200 µl homogenate, 10 or 5 µl sample in DMSO, 100 µl radioactive ligand. The samples were incubated 1 hr at room temperature and then filtered on a cell harvester through filters which had been presoaked for two hours in 50 mM Tris buffer, pH 7.7, containing 0.5% BSA. The filter was washed 3 times with approximately 3 ml of cold 50 mM Tris buffer, pH 7.7. The filter circles were then punched into 12 x 75 mm polystyrene tubes and counted in a gamma counter.
Table II, infra, provides a representative sample of the effectiveness as NK-2 receptor antagonists of many of the compounds of Formula I. The first column provides the Example number of the compound tested. The second column provides either the percent inhibition of neurokinin A binding when the compound is present in a ten micromolar concentration or the amount of compound (in micromolar amounts) necessary to inhibit fifty percent of the binding of neurokinin A. Those values which represent IC₅₀ values are designated by parentheses.

NK-1 receptor = target: T2, NK-1 receptor (Homo sapiens, UniProt P25103); experiment: NK-1 Receptor Binding Assay (competition with labeled substance P on IM9 cells); details: for IC50: concentration which inhibits fifty percent of the binding of substance P, 20 pM labeled substance P, 45 minutes at 4°C; for inhibition at 10 µM: inhibition of substance P binding to the NK-1 receptor, read-out: Percent Inhibition
T2 construct: an aliquot of IM9 cells; endogenous in cells; host or cells: IM9 cells (whole cells)
T2 sequence (P25103 whole entry): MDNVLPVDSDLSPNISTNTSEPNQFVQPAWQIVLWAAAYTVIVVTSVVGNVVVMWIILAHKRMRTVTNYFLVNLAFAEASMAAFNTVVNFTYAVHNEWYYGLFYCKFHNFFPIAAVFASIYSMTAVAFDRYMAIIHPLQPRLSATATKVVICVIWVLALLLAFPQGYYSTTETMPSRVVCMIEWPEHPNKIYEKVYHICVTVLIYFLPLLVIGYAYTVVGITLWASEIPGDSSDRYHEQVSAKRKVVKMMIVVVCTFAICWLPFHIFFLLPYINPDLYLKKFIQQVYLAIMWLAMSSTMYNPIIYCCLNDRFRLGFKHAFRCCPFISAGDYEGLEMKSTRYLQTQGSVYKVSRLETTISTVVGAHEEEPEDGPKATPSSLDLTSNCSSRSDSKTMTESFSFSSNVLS
Procedure: Radioreceptor binding assays were performed using a derivative of a previously published protocol. D.G. Payan, et al., Journal of Immunology, 133:3260-3265 (1984). In this assay an aliquot of IM9 cells (1 x 10⁶ cells/tube in […] medium supplemented with 10% fetal calf serum) was incubated with 20 pM […] substance P in the presence of increasing competitor concentrations for 45 minutes at 4°C.
The IM9 cell line is a well-characterized cell line which is readily available to the public. See. e.g., Annals of the New York Academy of Science, 190: 221-234 (1972); Nature (London), 251:443-444 (1974); Proceedings of the National Academy of Sciences (USA), 71:84-88 (1974). These cells were routinely cultured in RPMI 1640 supplemented with 50 µg/ml gentamicin sulfate and 10% fetal calf serum.
The reaction was terminated by filtration through a glass fiber filter harvesting system using filters previously soaked for 20 minutes in 0.1% polyethylenimine. Specific binding of labeled substance P was determined in the presence of 20 nM unlabeled ligand.
Column 1 provides the example number of the test antagonist compound. The next columns detail the substitution patterns of the test compound.

Compound	inhibition at 10 µM (human NK-2 receptor) [%]	IC50 (NK-1 receptor) [nM]	inhibition at 10 µM (NK-1 receptor) [%]	IC50 (human NK-2 receptor; values in parentheses, amount necessary to inhibit fifty percent of the binding of neurokinin A) [nM]
Cc1cccc(-c2nc3ccc(O)cc3n2Cc2ccccc2)c1 [Example 84, 1-benzyl-2-(3-methylphenyl)-6-hydroxybenzimidazole]	37.8	590		
Cc1cccc(-c2nc3ccccc3n2Cc2ccccc2I)c1 [Example 61, 1-(2-Iodobenzyl)-2-(3-methylphenyl)benzimidazole]	60.1		66	
COc1cc(-c2nc3ccccc3n2Cc2ccc(Cl)cc2Cl)cc(OC)c1OC [Example 54, 1-(2,4-dichlorobenzyl)-2-(3,4,5-trimethoxyphenyl)-benzimidazole]	86.2		56	
COc1cc(-c2nc3ccccc3n2Cc2ccccc2Br)cc(OC)c1OC [Example 51, 1-(2-bromobenzyl)-2-(3,4,5-trimethoxyphenyl)-benzimidazole]	84.8	591		
COc1cc(-c2nc3ccccc3n2Cc2ccc(Cl)c(Cl)c2)cc(OC)c1OC [Example 53, 1-(3,4-dichlorobenzyl)-2-(3,4,5-trimethoxyphenyl)-benzimidazole]	33.4		45	
COc1cc(-c2nc3ccc(OCCN4CCCC4)cc3n2Cc2ccccc2)cc(OC)c1OC [Example 72, 1-benzyl-2-(3,4,5-trimethoxyphenyl)-6-[2-(1-pyrroldinyl)ethoxy]benzimidazole]	53.8	74		
COc1cc(-c2nc3ccccc3n2Cc2ccccc2Cl)cc(OC)c1OC [Example 41, 1-(2-chlorobenzyl)-2-(3,4,5-trimethoxyphenyl)-benzimidazole]	73.7	815		
COc1cccc(Cn2c(-c3cc(OC)c(OC)c(OC)c3)nc3ccccc32)c1 [Example 45, 1-(3-methoxybenzyl)-2-(3,4,5-trimethoxyphenyl)-benzimidazole]	23.2		81	
COc1cc(-c2nc3ccccc3n2Cc2ccccc2F)cc(OC)c1OC [Example 48, 1-(2-fluorobenzyl)-2-(3,4,5-trimethoxyphenyl)-benzimidazole]	44.2	1390		
Cc1cccc(-c2nc3ccccc3n2Cc2cccc(Cl)c2)c1 [Example 57, 1-(3-Chlorobenzyl)-2-(3-methylphenyl)benzimidazole]	50.8	2650		
COc1cc(-c2nc3ccccc3n2Cc2cccc(C)c2)cc(OC)c1OC [Example 44, 1-(3-methylbenzyl)-2-(3,4,5-trimethoxyphenyl)-benzimidazole]	52.9	2050		
Cc1cccc(-c2nc3ccccc3n2Cc2ccc(Cl)c(Cl)c2)c1 [Example 64, 1-(3,4-Dichlorobenzyl)-2-(3-methylphenyl)benzimidazole]	58.7		41	
COc1cc(-c2nc3ccc(OCCN4CCC(N5CCCCC5)CC4)cc3n2Cc2ccccc2)cc(OC)c1OC [Example 77, 1-benzyl-2-(3,4,5-trimethoxyphenyl)-6-[2-[4-(piperidin-1-yl)piperdin-1-yl]ethoxy]benzimidazole]		123		6250
COc1cc(-c2nc3ccccc3n2Cc2ccc(C)cc2)cc(OC)c1OC [Example 55, 1-(4-methylbenzyl)-2-(3,4,5-trimethoxyphenyl)-benzimidazole]	21.9		53	
COc1cc(-c2nc3ccc(OCCN4CCCCC4)cc3n2Cc2ccccc2)cc(OC)c1OC [Example 71, 1-benzyl-2-(3,4,5-trimethoxyphenyl)-6-[2-(1-piperidinyl)ethoxy]benzimidazole]	70.1	60		
Cc1cccc(-c2nc3ccccc3n2Cc2ccccc2Cl)c1 [Example 56, 1-(2-chlorobenzyl)-2-(3-methylphenyl)-benzimidazole]	63.7		71	
COc1cc(-c2nc3ccc(OCCCN4CCCCC4)cc3n2Cc2ccccc2)cc(OC)c1OC [Example 74, 1-benzyl-2-(3,4,5-trimethoxyphenyl)-6-[3-(1-piperidinyl)propoxy]benzimidazole]	78	85		
COc1cc(-c2nc3ccccc3n2Cc2c(Cl)cccc2Cl)cc(OC)c1OC [Example 52, 1-(2,6-dichlorobenzyl)-2-(3,4,5-trimethoxyphenyl)-benzimidazole]	-7.1		20	
COc1cc(-c2nc3ccccc3n2Cc2cccc(Cl)c2)cc(OC)c1OC [Example 40, 1-(3-chlorobenzyl)-2-(3,4,5-trimethoxyphenyl)-benzimidazole]	55		77	
COc1cc(-c2nc3ccc(OCCN4CCCCCC4)cc3n2Cc2ccccc2)cc(OC)c1OC [Example 73, 1-benzyl-2-(3,4,5-trimethoxyphenyl)-6-[2-(1-hexamethyleneiminyl)ethoxy]benzimidazole]	83.5	52		
COc1cc(-c2nc3ccccc3n2Cc2ccccc2C)cc(OC)c1OC [Example 43, 1-(2-methylbenzyl)-2-(3,4,5-trimethoxyphenyl)-benzimidazole]	68.4	842		
COc1ccccc1Cn1c(-c2cc(OC)c(OC)c(OC)c2)nc2ccccc21 [Example 47, 1-(2-methoxybenzyl)-2-(3,4,5-trimethoxyphenyl)-benzimidazole]	67.7	449		
COc1cc(-c2nc3ccccc3n2Cc2ccccc2I)cc(OC)c1OC [Example 50, 1-(2-iodobenzyl)-2-(3,4,5-trimethoxyphenyl)-benzimidazole]	87.4	823		
COc1cc(-c2nc3ccccc3n2Cc2ccccc2C(F)(F)F)cc(OC)c1OC [Example 49, 1-(2-trifluoromethylbenzyl)-2-(3,4,5-trimethoxyphenyl)-benzimidazole]	82	721		
COc1cc(-c2nc3ccc(OCCN4CCOCC4)cc3n2Cc2ccccc2)cc(OC)c1OC [Example 70, 1-benzyl-2-(3,4,5-trimethoxyphenyl)-6-[2-(4-morpholinyl)ethoxy]benzimidazole]	63.7	85		
